Measurements from patent US11116754B2, “Inhibition of TOR complex 2 increases immunity against bacterial infection” (THE TRUSTEES OF COLUMBIA UNIVERSITY IN THE CITY OF NEW YORK, priority 2015, dated 2021).

Key:
Burkholderia cepacia [1] = assay: Bacterial load quantitation after Burkholderia cepacia infection; type: in vivo, Drosophila; details: wild type flies fed Torin vs vehicle-fed flies
Source text: Data are plotted with SEM.

Burkholderia cepacia [2] = assay: Survival of flies after Burkholderia cepacia infection; type: in vivo, Drosophila; details: relative to vehicle-fed controls, p<0.0001
Procedure: Infections were performed as previously described (Schneider et al. 2007) with Burkholderia cepacia (ATCC strain #25416). Death was assayed visually the next day every hour or more frequently as needed. Survival curves are plotted as Kaplan-Meier graphs and log-rank analysis performed using GraphPad Prism. All infection experiments were performed with a minimum of 3 independent trials and yielded statistically similar results, except where noted. Graphs and p-values in figures are representative trials.
To directly test the role of TORC1 in survival of infection, TORC1 activity was inhibited in two ways. First, flies were injected with rapamycin, a TORC1-specific inhibitor (9.6 ng per fly, equivalent to the mammalian dose of 16 mg/kg (Lee et al. 2009; Loeweth et al. 2002)).
Wild type flies, 5-7 day old males, were fed two different concentrations (250 μM and 500 μM) of Torin (MedChem Express), a TORC1 and TORC2 inhibitor, for two days prior to infection with Burkholderia cepacia as described in Example 1. Controls were fed a vehicle.

Torin
bacterial load (Burkholderia cepacia [1]): not significant change | survival of infection (Burkholderia cepacia [2]; wild type male flies fed 250 μM for two days prior to infection): significantly increased | survival of infection (Burkholderia cepacia [2]; wild type male flies fed 500 μM for two days prior to infection): significantly increased
